Source: patent US20220125051A1, “PRE-HARVEST DESICCATION METHOD” (SYNGENTA CROP PROTECTION AG, priority 2019, published 2022)
Read-outs that look alike come from different tables or passages of the source.

Experiments:
Assay in all cases: Post-emergence efficacy, Method A
Type in all cases: in vivo
Eleusine indica (ELEIN) = conditions: Eleusine indica, post-emergence, 312 h, evaluated after 13 days
In short: (§1)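 Plants grown 14 days in glasshouse (24/16 °C, 14 h light, 65% humidity) were sprayed with compound formulated in IF50. The spray was diluted in 0.25% or 1% Empicol ESC70 plus 1% ammonium sulphate. Damage was scored 13 days later on a 0-100 scale, where 100 is total damage.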

Setaria faberi (SETFA) = conditions: Setaria faberi, post-emergence, 312 h, evaluated after 13 days
In short: as §1

[1] = system: Amaranthus palmeri (AMAPA); conditions: Amaranthus palmeri, post-emergence, 312 h, evaluated after 13 days
In short: as §1

[2] = system: Ipomoea hederacea (IPOHE); conditions: Ipomoea hederacea, post-emergence, 312 h, evaluated after 13 days
In short: as §1

Lolium perenne (LOLPE) = conditions: Lolium perenne, post-emergence, 312 h, evaluated after 13 days
In short: as §1

[3] = system: Echinochloa crus-galli (ECHCG); conditions: Echinochloa crus-galli, post-emergence, 312 h, evaluated after 13 days
In short: as §1

[4] = system: Euphorbia heterophylla (EPHHL); conditions: Euphorbia heterophylla, post-emergence, 312 h, evaluated after 13 days
In short: as §1

[5] = system: Chenopodium album (CHEAL); conditions: Chenopodium album, post-emergence, 312 h, evaluated after 13 days
In short: as §1

[6] = system: Digitaria sanguinalis (DIGSA); conditions: Digitaria sanguinalis, post-emergence, 312 h, evaluated after 13 days
In short: as §1

[7] = Application rate 500 g/Ha, 100=total damage to plant, 0=no damage to plant, read-out: Control of weed species after post-emergence application, ELEIN
[8] = Application rate 500 g/Ha, 100=total damage to plant, 0=no damage to plant, read-out: Control of weed species after post-emergence application, SETFA
[9] = Application rate 500 g/Ha, 100=total damage to plant, 0=no damage to plant, read-out: Control of weed species after post-emergence application, AMAPA
[10] = Application rate 500 g/Ha, 100=total damage to plant, 0=no damage to plant, read-out: Control of weed species after post-emergence application, IPOHE
[11] = Application rate 500 g/Ha, 100=total damage to plant, 0=no damage to plant, read-out: Control of weed species after post-emergence application, LOLPE
[12] = Application rate 500 g/Ha, 100=total damage to plant, 0=no damage to plant, read-out: Control of weed species after post-emergence application, ECHCG
[13] = Application rate 500 g/Ha, 100=total damage to plant, 0=no damage to plant, read-out: Control of weed species after post-emergence application, EPHHL
[14] = Application rate 500 g/Ha, 100=total damage to plant, 0=no damage to plant, read-out: Control of weed species after post-emergence application, CHEAL
[15] = Application rate 500 g/Ha, 100=total damage to plant, 0=no damage to plant, read-out: Control of weed species after post-emergence application, DIGSA
[16] = Application Rate 500 g/Ha, Method A, read-out: Control of weed species after post-emergence application, ELEIN (100=total damage to plant; 0=no damage to plant)
[17] = Application Rate 500 g/Ha, Method A, read-out: Control of weed species after post-emergence application, SETFA (100=total damage to plant; 0=no damage to plant)
[18] = Application Rate 500 g/Ha, Method A, read-out: Control of weed species after post-emergence application, AMAPA (100=total damage to plant; 0=no damage to plant)
[19] = Application Rate 500 g/Ha, Method A, read-out: Control of weed species after post-emergence application, IPOHE (100=total damage to plant; 0=no damage to plant)
[20] = Application Rate 500 g/Ha, Method A, read-out: Control of weed species after post-emergence application, LOLPE (100=total damage to plant; 0=no damage to plant)
[21] = Application Rate 500 g/Ha, Method A, read-out: Control of weed species after post-emergence application, ECHCG (100=total damage to plant; 0=no damage to plant)
[22] = Application Rate 500 g/Ha, Method A, read-out: Control of weed species after post-emergence application, EPHHL (100=total damage to plant; 0=no damage to plant)
[23] = Application Rate 500 g/Ha, Method A, read-out: Control of weed species after post-emergence application, CHEAL (100=total damage to plant; 0=no damage to plant)
[24] = Application Rate 500 g/Ha, Method A, read-out: Control of weed species after post-emergence application, DIGSA (100=total damage to plant; 0=no damage to plant)

Structure (SMILES)	pest or weed control at 500 g/ha (Eleusine indica (ELEIN); [7])	pest or weed control at 500 g/ha (Setaria faberi (SETFA); [8])	pest or weed control at 500 g/ha [1, 9]	pest or weed control at 500 g/ha [2, 10]	pest or weed control at 500 g/ha (Lolium perenne (LOLPE); [11])	pest or weed control at 500 g/ha [3, 12]	pest or weed control at 500 g/ha [4, 13]	pest or weed control at 500 g/ha [5, 14]	pest or weed control at 500 g/ha [6, 15]	pest or weed control at 500 g/ha (Eleusine indica (ELEIN); [16])	pest or weed control at 500 g/ha (Setaria faberi (SETFA); [17])	pest or weed control at 500 g/ha [1, 18]	pest or weed control at 500 g/ha [2, 19]	pest or weed control at 500 g/ha (Lolium perenne (LOLPE); [20])	pest or weed control at 500 g/ha [3, 21]	pest or weed control at 500 g/ha [4, 22]	pest or weed control at 500 g/ha [5, 23]	pest or weed control at 500 g/ha [6, 24]
COC(=O)CC[n+]1ccc(-c2ncccn2)cn1 [Compound A54, methyl 3-(4-pyrimidin-2-ylpyridazin-1-ium-1-yl)propanoate 2,2,2-trifluoroacetate]	100%	100%	90%	10%	70%	90%	70%	90%	100%	–	–	–	–	–	–	–	–	–
COC(=O)CC[n+]1ccc(-c2ccncc2)cn1 [Compound A203]	–	–	–	–	–	–	–	–	–	60%	60%	100%	20%	0%	50%	50%	90%	70%
Cc1cccc(-c2cc[n+](CCC(=O)[O-])nc2)n1 [Compound A63]	50%	40%	40%	20%	20%	40%	30%	30%	30%	–	–	–	–	–	–	–	–	–
CCOC(=O)CC[n+]1ccc(-c2ncccn2)cn1 [Compound A82]	60%	60%	70%	20%	0%	30%	40%	80%	30%	–	–	–	–	–	–	–	–	–
O=S(=O)([O-])CC[n+]1ccc(-c2cnc(C(F)(F)F)cn2)cn1 [Compound A112]	50%	70%	100%	40%	40%	40%	80%	100%	40%	–	–	–	–	–	–	–	–	–
CO[N-]C(=O)CC[n+]1ccc(-c2ncccn2)cn1 [Compound A218]	–	–	–	–	–	–	–	–	–	60%	60%	100%	70%	70%	60%	80%	80%	70%
CS(=O)(=O)c1cnc(-c2cc[n+](CCC(=O)[O-])nc2)nc1 [Compound A46]	50%	50%	70%	10%	20%	30%	60%	10%	50%	–	–	–	–	–	–	–	–	–
